Reference: US20230234917A1, “ASPARAGINE DERIVATIVES AND METHODS OF USING SAME” (priority 2020, published 2023)
pIC50: −log10 of the molar value.

What was measured:
ClbP [1] = biological target: T1, ClbP (Escherichia coli, UniProt Q0P7K6); assay: ClbP whole cell activity (inhibition) assay, fluorogenic substrate; format: cell-based, E. coli
Description: Whole Cell Activity Assay
(§1) 1) E. coli ClbP+ were taken from a frozen stock and streaked onto BHI plates. They were grown aerobically at 37° C. overnight in the incubator.
(§2) 1) A single colony was selected from the plate and inoculated into 30 mL LB in a 50 mL conical vial eight times (240 mL total). The bacteria were grown aerobically overnight (16-20 h) at 37° C. on a nutator with rocking.
1) The saturated overnight culture was centrifuged to create a firm pellet (3,200 g, 10 min, 4° C.). In a biosafety cabinet, the supernatant was removed and then the pellet was resuspended in 30 mL sterile PBS.
2) The bacteria were centrifuged again (3,200 g, 10 min, 4° C.). The supernatant was removed, and the pellet was resuspended in sterile PBS buffer (6 mL) in each of the 8 tubes. This fivefold concentrated bacterial solution was the working solution.
3) The bacterial working solution (192 μL) was mixed with inhibitor (6 μL, final concentration was 300, 100, 33.3, 11.1, 3.7, 1.2, 0.4, or 0 μM). Fluorogenic substrate (2 μL, final concentration 5 μM) was immediately added across the plate to initiate the reaction. As a control, each plate contained Compound No. III in this dose response curve. The bacterial concentration was fivefold concentrated compared to the original saturated overnight culture. Carryover from DMSO was 4% (v/v). All compounds were tested in singlicate.
(§3) 4) The plate was loaded into a spectrophotometer preheated to 37° C. The fluorescence was recorded every 2 min for 46 min. The excitation wavelength was 360 nm (20 nm bandwidth), the emission wavelength was 460 nm (20 nm bandwidth), the optics position was bottom, the gain was 65, the light source was a tungsten bulb, and the read speed was normal.
(§4) 5) The linear portion of the fluorescence increase was 10-30 min. The rate of fluorescence increase (A.U./min) for each well in an inhibitor series was normalized to the 0 μM inhibitor condition. The normalized activity as a function of inhibitor concentration was then fit to a three parameter IC50 curve in Graphpad Prism.
(§5) “A” indicates an IC50 value less than 100 μM, “B” indicates an IC50 between 100 and 300 μM, “C” indicates an IC50 above 300 μM.

ClbP [2] = biological target: T1, ClbP; assay: ClbP cell lysate activity (inhibition) assay, fluorogenic substrate; format: biochemical; conditions: ClbP Lysate Inhibition Assay: IC50, E. coli ClbP+ lysozyme-EDTA lysates, 5 μM fluorogenic substrate, inhibitor 0-300 μM, 37° C., singlicate
Description: Cell Lysate Activity Assay
as §1, §2
1) The saturated overnight culture was centrifuged to create a firm pellet (3,200 g, 10 min, 4° C.). The supernatant was removed and then the pellet was resuspended in 30 mL sterile PBS.
2) The bacteria were centrifuged again (3,200 g, 10 min, 4° C.). The supernatant was removed, and the pellet was resuspended in sterile PBS buffer (3 mL) in each 8 tubes to make a tenfold concentrated bacterial solution.
3) A lysozyme-EDTA (LE) solution was made in ddH2O (0.05 mg/mL lysozyme, 0.25 M EDTA).
4) For each of the eight tubes, LE solution (3 mL) was mixed with concentrated bacterial solution (3 mL). This mixture was incubated at 37° C. for 30 min to generate the lysates.
5) The lysates (192 μL) were mixed with inhibitor (6 μL, final concentration was 300, 100, 33.3, 11.1, 3.7, 1.2, 0.4, or 0 μM). Fluorogenic substrate (2 μL, final concentration 5 μM) was immediately added across the plate to initiate the reaction. As a control, each plate contained Compound No. III in this dose response curve. The final concentration of bacterial lysates was fivefold concentrated compared to the original saturated overnight culture. Carryover from DMSO was 4% (v/v). All compounds were tested in singlicate.
as §3, with “6)” for “4)”
as §4, with “7)” for “5)”, “0-20” for “10-30”
as §5

Full-length WT ClbP = Full-length WT ClbP (Escherichia coli, UniProt Q0P7K6); assay: ClbP molecular (purified protein) enzymatic inhibition assay, fluorogenic substrate; format: biochemical, E. coli
Description: ClbP Molecular (Purified Protein) Assay
1) Full-length WT ClbP was thawed on ice. A diluted enzyme solution (2 nM) was made by mixing 3.57 μL of enzyme with 20 mL of reaction buffer (50 mM Tris pH 8.0, 200 mM NaCl, 0.02% (w/v) n-dodecyl-b-D-maltoside (DDM)).
2) In a 96 well plate, the diluted protein solution (73.5 μL) was mixed with inhibitor (1.5 μL, of varying concentrations, see below) and preincubated for 15 min at room temperature. Then, reaction buffer (75 μL) containing 10 μM fluorogenic substrate was added to initiate the reaction. After addition of substrate, the final concentrations were 1 nM full-length WT ClbP, 5 μM fluorogenic substrate in 50 mM Tris pH 8.0, 200 mM NaCl, 0.02% (w/v) DDM, with either 0, 0.14, 0.41, 1.2, 3.7, 11, 33, or 100 μM inhibitor. For all conditions, the DMSO carryover was 2% (v/v) at the preincubation stage and 1% in the reaction stage. Compound No. III was always present as a control in each plate, and all compounds were tested in singlicate. In previous assays, the Km of the fluorogenic substrate was determined to be approximately 5 μM.
3) Immediately after addition of substrate to enzyme, the plate was transferred into a spectrophotometer held at room temperature. The fluorescence was recorded every 1.5 min for 15 min. The excitation wavelength was 360 nm (20 nm bandwidth), the emission wavelength was 440 nm (20 nm bandwidth), the optics position was bottom, the gain was extended, the light source was a xenon flash lamp, and the read speed was normal.
as §4, with “4)” for “5)”, “is at least from 0-6 min, so this time regime is used.” for “was 10-30 min.”
as §5

SMILES | pIC50 (ClbP [1]) | pIC50 (ClbP [2]) | pIC50 (Full-length WT ClbP)
NC(=O)C[C@@H](NC(=O)CCCC1CCCCC1)C(=O)NCCc1ccccn1 [Compound CCCIII] | > 4.00 | > 4.00 | > 4.00
CCCCCCCC(=O)N[C@H](CC(N)=O)C(=O)NC[C@@H](C)c1ccccc1 [Compound CCCII] | > 4.00 | > 4.00 | > 4.00
NC(=O)C[C@@H](NC(=O)CCCCCCCCC(F)(F)F)C(=O)NCCc1ccc(O)cc1 [Compound CCCIV] | > 4.00 | > 4.00 | > 4.00
CCCCCCCCCC(=O)N[C@H](CC(N)=O)C(=O)NCCc1ccccn1 [Compound CCCIX] | > 4.00 | > 4.00 | > 4.00
CCCCCCCC(=O)N[C@H](CC(N)=O)C(=O)NC[C@H](C)c1ccccc1 [Compound CCCI] | > 4.00 | > 4.00 | > 4.00
CN1CCC(CCCC(=O)N[C@H](CC(N)=O)C(=O)NCCc2ccc(O)cc2)CC1 [Compound CCCVIII] | > 4.00 | < 3.52 | < 3.52
CCCCCCCCCCCC(=O)N[C@H](CC(N)=O)C(=O)NCCc1ccc(O)cc1 [Compound CCCVII] | > 4.00 | > 4.00 | > 4.00
CCCCCCCC(=O)N[C@H](CC(N)=O)C(=O)NCCc1c(F)cc(O)cc1F [Compound CCCVI] | > 4.00 | > 4.00 | > 4.00
NC(=O)C[C@@H](NC(=O)CCCCCCC(F)(F)F)C(=O)NCCc1ccc(O)cc1 [Compound CCCV] | > 4.00 | > 4.00 | > 4.00
CCCCCCCC(=O)N[C@H](CC(N)=O)c1ncnn1Cc1ccccc1 [Compound CCCXII] | < 3.52 | < 3.52 | < 3.52
CCCCCCCC(=O)N[C@](C)(CC(N)=O)C(=O)NCCc1ccc(O)cc1 [Compound CCCXI] | < 3.52 | < 3.52 | < 3.52
CCCCCCCCCCCC(=O)N[C@H](CC(N)=O)C(=O)NCCc1ccccn1 [Compound CCCX] | < 3.52 | > 4.00 | > 4.00
CNCCCCCC(=O)N[C@H](CC(N)=O)C(=O)NCCc1ccc(O)cc1 [Compound CCC] | < 3.52 | < 3.52 | < 3.52
CCCCCCCC(=O)N[C@H](CC(N)=O)C(=O)N[C@H](C)Cc1ccccc1 [Compound CCIII] | > 4.00 | > 4.00 | > 4.00
CCCCCCCC(=O)N[C@H](CC(N)=O)C(=O)N[C@@H](C)Cc1ccccc1 [Compound CCIV] | < 3.52 | < 3.52 | 3.52 to 4.00
CCCCCCCNC(=O)[C@H](CC(N)=O)NC(=O)OCc1ccccc1 [Compound CCIX] | < 3.52 | < 3.52 | 3.52 to 4.00
CCCCCCCC(=O)N[C@H](CC(N)=O)C(=O)NCc1ccccc1 [Compound CCI] | > 4.00 | > 4.00 | > 4.00
NC(=O)C[C@@H](NC(=O)CCCc1ccc(O)cc1)C(=O)NCCc1ccc(O)cc1 [Compound CCLIII] | > 4.00 | > 4.00 | > 4.00

SMILES | pIC50 (ClbP [1]) | pIC50 (ClbP [2]) | pIC50 (Full-length WT ClbP)
NC(=O)C[C@@H](NC(=O)CCCC1CCNCC1)C(=O)NCCc1ccc(O)cc1 [Compound CCLII] | < 3.52 | < 3.52 | 3.52 to 4.00
CCCCCCCC(=O)N[C@H](CC(N)=O)C(=O)NCCOc1ccccc1 [Compound CCLIV] | > 4.00 | > 4.00 | > 4.00
CCCCCC(=O)N[C@H](CC(N)=O)C(=O)NCCc1ccc(C(F)(F)F)cc1 [Compound CCLIX] |  | 3.52 to 4.00 | 3.52 to 4.00
NC(=O)C[C@@H](NC(=O)CCCc1ccncc1)C(=O)NCCc1ccc(O)cc1 [Compound CCLI] | > 4.00 | 3.52 to 4.00 | > 4.00
CCCCCCCC(=O)N[C@H](CC(N)=O)C(=O)c1nccn1Cc1ccccc1 [Compound CCLVIII] | < 3.52 | < 3.52 | 3.52 to 4.00
CCCCCCCC(=O)N[C@H](CC(N)=O)C(=O)c1nccn1C [Compound CCLVII] | < 3.52 | < 3.52 | 3.52 to 4.00
CCCCCCCC(=O)N[C@H](CC(N)=O)C(=O)NCCc1cc(F)c(O)c(F)c1 [Compound CCLVI] | > 4.00 | > 4.00 | > 4.00
CCCCCCCC(=O)N[C@H](CC(N)=O)C(=O)NCCOc1c(F)cccc1F [Compound CCLV] | > 4.00 | > 4.00 | > 4.00
NC(=O)C[C@@H](NC(=O)CCCC1CCCC1)C(=O)NCCc1ccccc1 [Compound CCLXIII] | > 4.00 | > 4.00 | > 4.00
NC(=O)C[C@@H](NC(=O)/C=C/CC1CCCC1)C(=O)NCCc1ccccc1 [Compound CCLXII] | < 3.52 | < 3.52 | > 4.00
NC(=O)C[C@@H](NC(=O)CCCCCCC(=O)O)C(=O)NCCc1ccccc1 [Compound CCLXIV] | < 3.52 | < 3.52 | 3.52 to 4.00
NC(=O)C[C@@H](NC(=O)CCCc1ccccc1)C(=O)NCCc1ccccc1 [Compound CCLXIX] | > 4.00 | > 4.00 | > 4.00
NC(=O)C[C@@H](NC(=O)CCCC1CCCC1)C(=O)NCCc1ccc(O)cc1 [Compound CCLXI] | > 4.00 | > 4.00 | > 4.00
CCCC(=O)N[C@H](CC(N)=O)C(=O)NCCc1ccccc1 [Compound CCLXVIII] | > 4.00 | < 3.52 | 3.52 to 4.00
CCCCCC(=O)N[C@H](CC(N)=O)C(=O)NCCc1ccccc1 [Compound CCLXVII] | > 4.00 | 3.52 to 4.00 | > 4.00
CCCCCCCC(=O)N[C@H](CC(N)=O)C(=O)NCCc1ccc(O)cc1 [Compound CC] |  |  | > 4.00
CCCCCCCNC(=O)[C@H](CC(N)=O)NC(=O)OCC [Compound XCIX] | < 3.52 | < 3.52 | 
